According to patent US8039585B2, “Therapeutic administration of the scrambled anti-angiogenic peptide C16Y” (The United States of America as represented by the …, priority 2004, dated 2011):
Like-named read-outs stand apart in the source and are kept apart here.

Legend:
[1] = tested on: MDA-MB 231 breast tumor cells; format: in vivo, chick; settings: for Average tumor weight: 7 day incubation
Description: FIG. 6: Inhibition of CAM tumor growth by C16Y. MDA-MB 231 breast tumor cells were mixed with C16 or C16Y peptides (at either 50 or 100 μg/ml), then mixed with 1:1 with neutralized collagen I solution. The collagen I gel was overlayed with the CAM of a 7-day-old embryo for 7 days, after which the membrane was fixed and tumor cells were removed and weighed. In the absence of either peptide, average tumor weight was 5.40±0.59 mg. […] C16Y peptide inhibited tumor growth by approximately 40% at both concentrations tested. Bars represent ±SD.
The effect of C16Y on tumor growth in vivo was analyzed using the CAM assay (Gho 2001). MDA-MB 231 breast tumor cells (a gift of Dan Welch, Pennsylvania State University, University Park, Pa.) (1×10^6 cells/0.1 ml) in RPMI 1640 were mixed with 0, 50, or 100 μg/ml of C16 or C16Y, and then mixed 1:1 with a neutralized collagen I solution (4.6 mg/ml collagen type 1). This collagen I gel was overlayed with the CAM of a 7-day-old embryo. After a 7 day incubation, the membrane was fixed and tumor cells were removed and weighed. This experiment was repeated twice, with each data point tested in at least six replicates.

MDA-MB 231 cells = test: Tumor cell proliferation assay (Cell Titer 96 Aqueous); format: cell-based; settings: 100 μg/ml, 2-72 hours
Description: A proliferation assay was performed to determine whether the tumor inhibition discussed in Example 6 was the result of angiogenesis inhibition or some effect on cell proliferation. Proliferation of MDA-MB 231 cells was quantified using a Cell Titer 96 Aqueous Cell Proliferation assay kit (Promega, Madison, Wis.). Cells were plated on four 96-well dishes at 5×10^3 cells/well and cultured in AIM-V serum-free medium (Life Technologies, Inc., Gaithersburg, Md.). After 1 hour, peptides C16 and C16Y were added at a final concentration of 100 μg/ml. A separate dish was used to quantitate proliferation at 2, 24, 48, and 72 hours by reading absorbance at 490 nm on an Emax plate reader. Each experiment was repeated in triplicate two times.

[2] = tested on: MDA-MB 231 breast cancer cells; test: Primary tumor growth in nude mice (s.c. MDA-MB 231); format: in vivo; settings: 1 mg/day i.p.
Description: FIG. 7: Inhibition of primary tumor growth by C16Y. MDA-MB 231 cancer cells were injected subcutaneously (s.c.) into nude mice and the tumors were allowed to grow until they reached 200-300 mm^3. Mice were then treated daily for 7-10 days with C16 (1 mg/day) or C16Y peptides (0.2, 0.5, or 1 mg/day) by intraperitoneal (i.p.) injection. Control mice were injected with water only. Tumor size was measured at 0, 3, 6, and 9 days after peptide injections began. A. Mice were treated with 1 mg/day of either C16 or C16Y peptide for 10 days. […] B. Mice were treated with C16Y peptide at varying concentrations for 7 days. C16Y decreased tumor size at all concentrations tested during the 7 days it was administered. Tumor growth resumed when administration of the C16Y peptide was halted, with tumor size increasing more rapidly in mice treated with lower dosages of C16Y. Bars represent ±SD.
MDA-MB 231 breast cancer cells (5×10^5 cells) mixed with Matrigel (1:4) were injected subcutaneously (s.c.) into nude mice. […] Tumor growth was monitored with a caliper, with measurements being taken on days 0, 3, 6, and 9 after the first peptide injection. Tumor volume was determined using the formula width^2×length×0.52. […] Vessel number was determined by staining sections with a CD-31 antibody (Nomizu 2001) and counting 6 fields per section per mouse (n=2 section/mouse; total 3 mice).

HUVECs = test: Endothelial cell tube-forming assay on Matrigel; format: cell-based, human; set-up: key to Disruption of tube formation / Activity (tube formation, truncated C16Y peptides): +: tubes slightly affected; ++: tubes moderately affected; +++: tubes disrupted; ++++: tubes completely disrupted; −: tubes resemble control; settings: for Disruption of tube formation: 16 hours
Description: FIG. 3: Disruption of endothelial cell tube formation by C16Y peptide. 48-well plates were coated with 200 μl of Matrigel per well. Each well was treated with RPMI containing 24,000 human umbilical vein endothelial cells (HUVECS) and 100 mg/L endothelial cell growth factor in the presence of 10-75 μg/ml of C16 or scrambled C16 peptide for 16 hours. Control wells contained medium only. Cells were fixed and stained, and tube formation was scored by a blinded observer.
Tube-forming assays were performed as described previously (Ponce 2001). 48-well plates were coated with 200 μl/well of Matrigel (Gho 2001; Kubota 1988), a basement membrane matrix. HUVECs (24,000 cells/well) were plated in RPMI 1640 containing 10% bovine calf serum, defined and supplemented (HyClone Laboratories, Inc., Logan, Utah), along with 100 mg/liter of endothelial cell growth factor (Collaborative Biomedical). C16 or scrambled C16 peptides were added at concentrations ranging from 10-75 μg/ml. Control wells contained medium only. After 16 hours, cells were fixed and stained with Diff-Quick fixative (methanol) and solution II (6.25% (w/v) each of azure A and methylene blue) (Dade A G, Dudingen, Switzerland), and tube formation was scored by a blinded observer. Each peptide was tested at least in triplicate, and the assays were repeated a minimum of three times.
Tube formation assays were repeated using truncated versions of the C16Y peptide to determine the minimal active sequence of the peptide. The carboxyl end of C16Y was not necessary for activity, whereas the amino terminal aspartic acid was required. The minimal active sequence for the C16Y peptide is shown in SEQ ID NO: 2. Each of the peptides containing at least this 8 amino acid sequence (SEQ ID NOs: 1-5) inhibited tube formation.

[3] = tested on: C16-induced angiogenesis in the chick CAM; test: CAM assay, C16-induced angiogenesis; format: in vivo; settings: peptide alone (C16: 0.5 μg)
Description: FIG. 4: Inhibition of C16-induced angiogenesis by C16Y. 0.5 μg of angiogenic stimulator (C16 peptide) and varying concentrations of either C16S or C16Y peptides were applied to 10-day-old embryonated eggs in 5 μl of water. After 3 days, microphotographs were taken of the eggs to determine angiogenesis levels. Negative control eggs were treated with water only (panel a), while positive control eggs were treated with bFGF only (not shown). As expected, C16 peptide administered alone stimulated angiogenesis (panel d). […] When the amount of inhibitor peptide was lowered to 0.05 μg, C16Y peptide continued to inhibit angiogenesis (panel f), while C16S peptide had no effect (panel c).
The CAM assay was performed using 10-day-old embryonated eggs (CBT, Charlestown, Md.) as described previously (Gho 1999). On embryonal day 3, approximately 4 ml of ovalbumin was removed from each egg. After opening windows on embryonal day 10, the angiogenic stimulus (C16) and test competitor peptides in 5 μl of distilled water were applied to the CAM after drying on 13-mm diameter quartered plastic coverslips (Thermanox; Nalge, NUNC International, Naperville, Ill.). Three days later, the eggs were scored for a positive response and photographed. The positive control was bFGF, and the negative control was the vehicle water. Experiments were repeated twice using a minimum of 11 eggs for each data point.

## KAFDITYVRLKF [Peptide C16, angiogenic peptide from the γ1 chain of laminin-1]
[1]; 50 μg/ml peptide
  Average tumor weight: 5.45 ± 0.84 mg
[1]; 100 μg/ml peptide
  Average tumor weight: 5.85 ± 0.54 mg
[1]; P≦0.027
  Vessels observed in tumors: 9.6±0.23
MDA-MB 231 cells
  Effect on MDA-MB 231 cell proliferation: Neither C16 nor C16Y altered MDA-MB 231 cell proliferation
[2]; 7 days, stated jointly with control mice
  Tumor size relative to original size: 1.7-2.5 times their original size
[2]; after 7 days
  Tumor growth: did not significantly affect tumor growth
HUVECs; 10-75 μg/ml tested
  Dose at which tube formation is disrupted (lowest active): 50 µg/mL
HUVECs; peptide concentration 10 μg/ml
  Disruption of tube formation: −
HUVECs; peptide concentration 25 μg/ml
  Disruption of tube formation: −
HUVECs; peptide concentration 50 μg/ml
  Disruption of tube formation: +
HUVECs; peptide concentration 75 μg/ml
  Disruption of tube formation: +++
[3]
  Angiogenesis with peptide administered alone: capable of inducing angiogenesis
